11 compounds from paper PMC6152322, “Synthesis and Evaluation of New Oxadiazole, Thiadiazole, and Triazole Derivatives as Potential Anticancer Agents Targeting MMP-9” (Molecules : A Journal of Synthetic Chemistry and Natural …, 2017) can be followed below.

Where two headings read alike, the source gives them in different places.

One series deals with C6 rat glioma cell line. The series is described as follows: XTT cytotoxicity assay on C6 cells. It is filed as cell-based. Conditions: 24 h incubation, Mean ± standard deviation, read-out: IC50 Values for Cell Lines C6. The source says: (§1) NIH/3T3 Mouse embryonic fibroblast (ATCC® CRL-1658™, American Type Culture Collection (ATCC), Manassas, VA, USA), A549 human lung adenocarcinoma (ATCC® CCL-185™, American Type Culture Collection (ATCC), Manassas, VA, USA) and C6 rat glioma (ATCC® CCL-107™, American Type Culture Collection (ATCC), Manassas, VA, USA) cell lines were used for cytotoxicity tests. NIH/3T3 cell line was used to investigate the selectivity of the compounds, whereas other cell lines were used to determine anticancer activity. All cell lines were incubated according to the instructions of the supplier at 37 °C in a humidified atmosphere of 95% air and 5% CO2. NIH/3T3, A549 and C6 cells were seeded at 1 × 10^4 cells into each well of 96-well plate. After 24 h of incubating period, the culture mediums were removed and compound was added to culture medium at 500–3.9 μg/mL doses with a dilution factor of 2 (3.9, 7.8, 15.6, 31.2, 62.5, 125, 250, 500 μg/mL). After 24 h of incubation, XTT (2,3-bis(2-methoxy-4-nitro-5-sulfophenyl)-2H-tetrazolium-5-carboxanilide) assay was performed using the In Cytotox-XTT 1 Parameter Cytotoxicity Kit (Xenometrix, Allschwil, Switzerland) as previously described. […] All experiments were done in quadruplicates at three different time points, and the results were given as Mean ± standard deviation. Cisplatin was used as a positive control. The stock solutions of the compounds were prepared in dimethyl sulfoxide (DMSO) and further dilutions were made with fresh culture medium. The final DMSO concentration was under 0.1%.
(§2) Inhibition%=100−( corrected mean OD sample/corrected mean OD solvent controls ×100)

The test system of series [1] is A549 human lung adenocarcinoma cell line. Put plainly: XTT cytotoxicity assay on A549 cells. Type of series: cell-based. Particulars: for IC50: Mean ± standard deviation, read-out: IC50 Values for Cell Lines A549.
Text: as §1, §2
Background: Tetrazolium dyes change colour on reduction, which living cells bring about.

The test system of series [2] is NIH/3T3 mouse embryonic fibroblast cell line. The series is described as follows: XTT cytotoxicity assay on NIH/3T3 cells. It is filed as cell-based. Particulars: NIH3T3, 24 h incubation, Mean ± standard deviation, read-out: IC50 Values for Cell Lines NIH/3T3.
Text: as §1, §2

For another series, the target named is T1, MMP-9 (Homo sapiens, UniProt P14780).
T1 construct: purchased Enzo Life Sciences Inc
Put plainly: MMP-9 colorimetric inhibition assay. It is filed as biochemical. Conditions: for inhibition at 1.3 µM: read-out: Inhibition % (Mean ± SD) MMP-9. An excerpt: (§3) MMP-1, -2, -8, -9, -13 colorimetric kits were purchased from Enzo Life Sciences Inc. (Farmingdale, New York, NY, USA). The MMP Colorimetric Drug Discovery Kits are complete assay system designed to screen MMP inhibitors using a thiopeptide as a chromogenic substrate (Ac-PLG-[2-mercapto-4-methyl-pentanoyl]-LG-OC2H5). The MMP cleavage site peptide bond is replaced by a thioester bond in the thiopeptide. Hydrolysis of this bond by a MMP produces a sulfhydryl group, which reacts with DTNB [5,5′-dithiobis(2-nitrobenzoic acid), Ellman’s reagent] to form 2-nitro-5-thiobenzoic acid, which can be detected by its absorbance at 412 nm. The assays were conducted in triplicate. The UV absorbance was read at 412 nm using a microplate reader (BioTek, PowerWave, Gen5 software, Winooski, VT, USA) at room temperature. NNGH was used as a control inhibitor. Data was expressed as Mean ± SD [63].
(§4) The inhibitor% remaining activity of MMPs was calculated using the following equation: Inhibitor% activity remaining = (V inhibitor/V control) × 100
(§5) The inhibition (percent) of MMPs was calculated using the following equation:I (%) = 100 − Inhibitor% activity remaining

Another series addresses T2, MMP-8 (Homo sapiens, UniProt P22894).
T2 construct: purchased Enzo Life Sciences Inc
Put plainly: MMP-8 colorimetric inhibition assay. It is filed as biochemical. Conditions: for Inhibition % (Mean ± SD) MMP-8: 1.3 μM.
Text: as §3, §4, §5

The next series deals with T3, MMP-2 (Homo sapiens, UniProt P08253).
T3 construct: purchased Enzo Life Sciences Inc
T3 sequence (P08253 110-660): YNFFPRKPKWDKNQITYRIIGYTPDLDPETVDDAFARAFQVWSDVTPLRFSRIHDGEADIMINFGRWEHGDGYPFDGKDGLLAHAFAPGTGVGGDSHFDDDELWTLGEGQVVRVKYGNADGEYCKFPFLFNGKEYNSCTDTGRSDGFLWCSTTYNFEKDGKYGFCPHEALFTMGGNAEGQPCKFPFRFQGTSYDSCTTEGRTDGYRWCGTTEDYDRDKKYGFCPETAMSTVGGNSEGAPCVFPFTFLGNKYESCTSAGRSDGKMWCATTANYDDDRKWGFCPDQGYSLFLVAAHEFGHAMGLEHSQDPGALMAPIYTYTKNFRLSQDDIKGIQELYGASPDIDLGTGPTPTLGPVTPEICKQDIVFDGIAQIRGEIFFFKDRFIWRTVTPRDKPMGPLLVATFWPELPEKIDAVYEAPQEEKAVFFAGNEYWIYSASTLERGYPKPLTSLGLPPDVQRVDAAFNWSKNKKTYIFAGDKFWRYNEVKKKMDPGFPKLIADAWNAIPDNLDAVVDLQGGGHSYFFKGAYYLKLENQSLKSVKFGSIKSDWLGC
Put plainly: MMP-2 colorimetric inhibition assay. Particulars: 1.3 μM. Type of series: biochemical.
Text: as §3, §4, §5

For a further series, the target named is T4, MMP-13 (Homo sapiens, UniProt P45452).
T4 construct: purchased Enzo Life Sciences Inc
Put plainly: MMP-13 colorimetric inhibition assay. Type of series: biochemical. Conditions: 1.3 μM.
Text: as §3, §4, §5

The target in another series is T5, MMP-1 (Homo sapiens, UniProt P03956).
T5 construct: purchased Enzo Life Sciences Inc
T5 sequence (P03956 100-469): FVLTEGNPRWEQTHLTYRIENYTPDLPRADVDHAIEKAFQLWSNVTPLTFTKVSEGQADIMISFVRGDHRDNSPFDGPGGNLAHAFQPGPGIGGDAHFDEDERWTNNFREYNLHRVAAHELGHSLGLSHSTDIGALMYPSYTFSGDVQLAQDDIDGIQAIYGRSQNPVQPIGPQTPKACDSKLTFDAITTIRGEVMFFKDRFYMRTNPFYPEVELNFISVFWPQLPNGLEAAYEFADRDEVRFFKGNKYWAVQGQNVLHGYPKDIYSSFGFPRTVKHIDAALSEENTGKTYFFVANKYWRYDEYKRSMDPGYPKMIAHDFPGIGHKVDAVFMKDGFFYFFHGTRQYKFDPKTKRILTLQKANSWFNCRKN
The series is described as follows: MMP-1 colorimetric inhibition assay. Type of series: biochemical. Conditions: 1.3 μM.
Text: as §3, §4, §5

Setting [3] is: Homo sapiens, A549, 24 h incubation.

T2 sequence (P22894 101-467): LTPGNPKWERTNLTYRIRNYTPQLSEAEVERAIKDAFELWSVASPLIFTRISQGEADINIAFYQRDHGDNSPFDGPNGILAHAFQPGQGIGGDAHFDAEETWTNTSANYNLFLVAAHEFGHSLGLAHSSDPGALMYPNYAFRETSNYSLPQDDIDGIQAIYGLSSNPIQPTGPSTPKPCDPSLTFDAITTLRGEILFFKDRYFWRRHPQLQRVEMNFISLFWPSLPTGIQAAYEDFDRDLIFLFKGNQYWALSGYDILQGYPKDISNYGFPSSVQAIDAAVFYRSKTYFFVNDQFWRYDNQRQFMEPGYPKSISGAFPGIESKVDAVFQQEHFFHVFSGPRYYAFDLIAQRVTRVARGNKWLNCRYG
T1 sequence (P14780 94-707): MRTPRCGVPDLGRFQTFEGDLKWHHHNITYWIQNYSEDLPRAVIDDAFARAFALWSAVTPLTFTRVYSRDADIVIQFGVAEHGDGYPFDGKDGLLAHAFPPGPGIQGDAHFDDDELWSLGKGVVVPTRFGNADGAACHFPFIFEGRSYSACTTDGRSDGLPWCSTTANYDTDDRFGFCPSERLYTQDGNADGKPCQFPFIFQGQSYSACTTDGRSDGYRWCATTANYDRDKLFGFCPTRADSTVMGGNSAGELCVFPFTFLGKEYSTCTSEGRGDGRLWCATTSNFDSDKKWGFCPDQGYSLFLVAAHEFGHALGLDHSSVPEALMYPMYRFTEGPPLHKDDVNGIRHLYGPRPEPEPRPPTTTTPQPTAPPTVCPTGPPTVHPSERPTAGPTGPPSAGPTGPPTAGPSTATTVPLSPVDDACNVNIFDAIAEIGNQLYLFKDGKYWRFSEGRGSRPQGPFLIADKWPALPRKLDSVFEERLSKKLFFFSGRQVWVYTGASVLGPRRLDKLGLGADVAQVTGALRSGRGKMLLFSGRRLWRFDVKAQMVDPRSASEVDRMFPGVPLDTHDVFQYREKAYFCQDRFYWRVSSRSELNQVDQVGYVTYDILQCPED

Consider `N.N.[Cl][Pt][Cl]` [Cisplatin, reference compound], for which the IC50 in the series with C6 rat glioma cell line is 103 ± 26 µM; in series [1] (24 h incubation), 140 ± 30 µM.

`O=C(CSc1nnc(Nc2ccc(Cl)cc2Cl)s1)N1CCOCC1` [Compound 1, 2-{[5-((2,4-Dichlorophenyl)amino)-1,3,4-thiadiazol-2-yl]thio}-1-morpholinoethan-1-one]: the melting point stood at 154 °C. Also, the IC50 in the series on C6 rat glioma cell line (Rattus norvegicus, Glioma cell) came out at 128 ± 27 µM. Further, in series [2], the IC50 was determined as 308 ± 37 µM. The inhibition at 1.3 µM at MMP-9 was 24.8 ± 0.86%. Moreover, on MMP-8 (read-out: Inhibition % (Mean ± SD) MMP-8), the inhibition at 1.3 µM was determined as 15 ± 1.4%. In addition, the IC50 in series [1] (setting [3]) is greater than 1230 µM.

`Nn1c(COc2ccccc2)nnc1SCC(=O)N1CCOCC1` [Compound 2, 2-{[4-Amino-5-(phenoxymethyl)-4H-1,2,4-triazol-3-yl]thio}-1-morpholinoethan-1-one] had a melting point of 213 °C. For the same compound, in the series with C6 rat glioma cell line (Rattus norvegicus, Glioma cell), the IC50 is greater than 1430 µM. Further, the IC50 in series [2] came out at 1410 ± 94 µM. Moreover, in series [1] (setting [3]), the IC50 is greater than 1430 µM.

With `COc1ccc(OCc2nnc(SCC(=O)N3CCOCC3)o2)cc1` [Compound 3, 2-{[5-((4-Methoxyphenoxy)methyl)-1,3,4-oxadiazol-2-yl]thio}-1-morpholinoethan-1-one], the melting point worked out at 119 °C. The IC50 in the series with C6 rat glioma cell line (Rattus norvegicus, Glioma cell) is 507 ± 49 µM. The IC50 in series [2] turned out to be 1370 ± 74 µM. Also, the IC50 in [1] (setting [3]) came out at 1370 ± 58 µM.

Take `O=C(CSc1nnc(COc2ccc3c(c2)CCCC3)o1)N1CCOCC1` [Compound 4, 2-{[5-(((5,6,7,8-Tetrahydronaphthalen-2-yl)oxy)methyl)-1,3,4-oxadiazol-2-yl]thio}-1-morpholinoethan-1-one]: the IC50 in the series with C6 rat glioma cell line (Rattus norvegicus, Glioma cell) is greater than 1280 µM; in series [2], 1280 ± 90 µM; in series [1] (setting [3]), greater than 1280 µM.

Turning to `O=C(CSc1nnc(Nc2ccc(Cl)cc2Cl)s1)NCc1ccc2c(c1)OCO2` [Compound 5, N-(1,3-Benzodioxol-5-ylmethyl)-2-{[5-((2,4-dichlorophenyl)amino)-1,3,4-thiadiazol-2-yl]thio}acetamide], the melting point is 187 °C. For the same compound, the IC50 in the series with C6 rat glioma cell line (Rattus norvegicus, Glioma cell) was greater than 1070 µM. For the same compound, in series [2], the IC50 was greater than 1070 µM. For the same compound, the “cytotoxic activity against A549 cell line (in words)” value (from here on “cytotoxic activity”) in series [1] (24 h incubation) was “did not show any cytotoxic activity”. In addition, in [1] (setting [3]), the IC50 was greater than 1070 µM.

For the compound `Nn1c(COc2ccccc2)nnc1SCC(=O)NCc1ccc2c(c1)OCO2` [Compound 6, 2-{[4-Amino-5-(phenoxymethyl)-4H-1,2,4-triazol-3-yl]thio}-N-(1,3-benzodioxol-5-ylmethyl)acetamide], the melting point is 148 °C. The IC50 in the series with C6 rat glioma cell line (Rattus norvegicus, Glioma cell) is greater than 1210 µM. Besides, the IC50 in series [2] was greater than 1210 µM. Also, in series [1] (24 h incubation), the “cytotoxic activity” value was “did not show any cytotoxic activity”. Further, the IC50 in series [1] (setting [3]) was greater than 1210 µM.

The compound `COc1ccc(OCc2nnc(SCC(=O)NCc3ccc4c(c3)OCO4)o2)cc1` [Compound 7, N-(1,3-Benzodioxol-5-ylmethyl)-2-{[5-((4-methoxyphenoxy)methyl)-1,3,4-oxadiazol-2-yl]thio}acetamide] had a melting point of 127 °C. The IC50 in the series with C6 rat glioma cell line (Rattus norvegicus, Glioma cell) was greater than 1170 µM. Besides, in [2], the IC50 stood at 100 ± 11 µM. The “cytotoxic activity” value in [1] (24 h incubation) is given as “did not show any cytotoxic activity”. Further, the IC50 in series [1] (setting [3]) was greater than 1170 µM.

As for `O=C(CSc1nnc(COc2ccc3c(c2)CCCC3)o1)NCc1ccc2c(c1)OCO2` [Compound 8, N-(1,3-Benzodioxol-5-ylmethyl)-2-{[5-(((5,6,7,8-tetrahydronaphthalen-2-yl)oxy)methyl)-1,3,4-oxadiazol-2-yl]thio}acetamide], the melting point was found to be 96 °C. Moreover, the IC50 in the series with C6 rat glioma cell line (Rattus norvegicus, Glioma cell) is 137 ± 15 µM. For the same compound, in [2], the IC50 is greater than 1100 µM. Moreover, the inhibition at 1.3 µM on MMP-9 stood at 25.8 ± 2.16%. The “Inhibition % (Mean ± SD) MMP-8” value at MMP-8 is given as “no inhibitory activity”. The IC50 in series [1] (setting [3]) was 125 ± 20 µM.

`O=C(CSc1nnc(-c2ccccc2)o1)NCc1ccc2c(c1)OCO2` [Compound 9, N-(1,3-Benzodioxol-5-ylmethyl)-2-[(5-phenyl-1,3,4-oxadiazol-2-yl)thio]acetamide] showed a melting point of 136 °C. Besides, the IC50 in the series on C6 rat glioma cell line (Rattus norvegicus, Glioma cell) turned out to be 157 ± 16 µM. Moreover, in [2], the IC50 is 888 ± 29 µM. The inhibition at 1.3 µM on MMP-9 was determined as 30.5 ± 3.27%. In addition, on MMP-8, the “Inhibition % (Mean ± SD) MMP-8” value is given as “no inhibitory activity”. In addition, the IC50 in series [1] (setting [3]) is 349 ± 46 µM.

In the case of `COc1ccc(S(=O)(=O)N(CC(=O)NO)CC(C)C)cc1` [NNGH, N-isobutyl-N-(4-methoxyphenylsulfonyl)glycyl hydroxamic acid], the “Inhibition % (Mean ± SD) MMP-2” value at MMP-2 was found to be 100%. On MMP-13, the “Inhibition % (Mean ± SD) MMP-13” value is reported as 93.74 ± 3.06%. Also, the “Inhibition % (Mean ± SD) MMP-9” value at MMP-9 (1.3 μM) is 88.44 ± 3.35%. For the same compound, the “Inhibition % (Mean ± SD) MMP-8” value at MMP-8 was 100%. The “Inhibition % (Mean ± SD) MMP-1” value at MMP-1 turned out to be 87.79 ± 3.49%.

Usually melting point stands for the temperature, or range, at which the solid turns liquid. For orientation: inhibition means the change of the read-out against control, counted positive when it falls.
